The values that follow come from patent US20160129070A1, “Glutathione Disulfide Compositions and Related Methods for the Treatment of Cancer” (South Dakota Board of Regents, priority 2014, published 2016).

For this assay, the system named is B16-F10 cells lung metastasis. Put plainly: Murine lung metastasis assay, B16-F10 cells injected through a tail vein. Type of assay: in vivo, mice. Conditions: no pretreatment of cells; 50 mg/kg i.p. daily for 5 days; day 21. The source says: Mice were housed four in a cage and received food and water ad libitum. All mice were used at approximately 7-10 weeks of age and given at least one week break after arrival. All experimental protocols were approved by the Institutional Animal Care and Use Committee. Procedures for murine lung metastasis assays reported previously were followed with minor modification [Bezault, J., Bhimani, R., Wiprovnick, J., and Furmanski, P. (1994) Cancer Res 54, 2310-2312; Kalland, T. (1986) Cancer Res 46, 3018-3022; Schultz, R. M., Silberman, S., Persky, B., Bajkowski, A. S., and Carmichael, D. F. (1988) Cancer Res 48, 5539-5545]. Mice were divided into 7 mice per group for treatment. B16-F10 cells were grown and maintained as monolayers in RPMI 1640 medium supplemented with 10% FBS and 1% penicillin/streptomycin in 5% CO2 at 37° C. The cells were then subjected to FBS starvation in RPMI 1640 medium without FBS for 24 h. Cells were harvested through trypsinization and adjusted to a density of […] with serum free medium. […] The weight of mice was recorded daily. […] Tumor nodules on lung surface were counted under a magnifier.
FIG. 5 presents the representative photographs of the lungs dissected from mice with different treatments. […] The effect was further confirmed by the metastatic tumors counted under a magnifier (Table 3). […]

As for `CN(C)/N=N/c1[nH]cnc1C(N)=O` [Dacarbazine], the “Number of metastatic tumors in murine lungs, Average” value was found to be 0.8 ± 2.0.
